Laboratory results from patent publication US9108939B2, “(1, 1, 1,3,3,3-hexafluoro-2 hydroxypropan-2-yl) phenyl derivative, pharmaceutical compositions thereof and their use for the treatment of atherosclerosis” (Merck Sharp & Dohme B.V., priority 2009, dated 2015).
Like-named read-outs stand apart in the source and are kept apart here.

Target: T1, recombinant human LXRβ-LBD-GST (Homo sapiens, UniProt P55055)
T1 construct: The LBD of LXRα or LXRβ was amplified by PCR and sub-cloned into the prokaryotic expression vector pGEX-4T-1; made in house; host or cells: E. coli
T1 sequence (P55055 222-460 limits assumed): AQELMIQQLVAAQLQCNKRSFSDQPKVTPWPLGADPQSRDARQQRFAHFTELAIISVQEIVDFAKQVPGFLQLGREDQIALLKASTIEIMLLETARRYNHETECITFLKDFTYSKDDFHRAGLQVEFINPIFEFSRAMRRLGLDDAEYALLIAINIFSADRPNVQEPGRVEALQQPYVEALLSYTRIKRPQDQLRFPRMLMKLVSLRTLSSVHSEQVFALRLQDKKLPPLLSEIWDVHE
Assay: Radioligand competition binding scintillation proximity assay (SpA), LXRβ
Excerpt: Radioligand Competition Binding Scintillation Proximity Assay (SpA) Using Recombinant Human LXRα or LXRβ Protein
These assays utilise the purified ligand binding domain (LBD) of Liver X Receptor alpha (LXRα) or Liver X Receptor beta (LXRβ) fused to […] (GST) tagged protein (LXRα-LBD-GST and LXRβ-LBD-GST respectively) and scintillation proximity assay (SpA) technology to determine binding affinities (pKi) of compounds at the ligand binding domain (LBD) of the human nuclear hormone receptor LXRα or LXRβ.
Preparation of Recombinant Human LXRα and LXRβ
Human LXRα and LXRβ were expressed as GST-fusion proteins in E. coli.
The LBD of LXRα or LXRβ was amplified by PCR and sub-cloned into the prokaryotic expression vector pGEX-4T-1 (GE Healthcare). […] E. coli, containing either the LXRα or LXRβ pGEX-4T-1 plasmid, were propagated, induced, and harvested by centrifugation. The bacterial pellets were resuspended in lysis buffer containing 50 mM tris(Hydroxymethyl)aminomethane (TRIS)-pH 8.0, 100 mM Sodium Chloride (NaCl), 1 mM ethylenediaminetetraacetic acid (EDTA) and one tablet of Proteinase inhibitor cocktail complete/EDTA free (Roche) (per 50 mL of buffer). The mixtures were sonicated on ice with a Branson sonifier. The suspensions were centrifuged and dithiothreitol (DTT) added to the supernatants to obtain a final concentration of 25 mM. […] Proteins were stored in 20 mM N2-hydroxyethylpiperazine-N′-2-ethanesulfonic acid (HEPES), 2 mM DTT with 10% glycerol at −80° C.
Binding to LXRα or LXRβ LBDs
For LXRα or LXRβ assays, an aliquot of recombinant human LXRα-LBD-GST or LXRβ-LBD-GST protein was diluted to 0.5 μg/mL and incubated in a final volume of 100 μL SpA buffer (10 mM potassium hydrogen phosphate anhydrous [K2HPO4], 10 mM potassium Phosphate Monobasic [KH2PO4], 2 mM EDTA pH 7.1, 50 mM NaCl, 1 mM DTT, 2 mM 3-[(3-cholamidopropyl)dimethylammonio]-1-propanesulfonate (CHAPS)) containing Protein-A coupled scintillant filled YtSi SpA beads (GE Healthcare), to a final concentration of 1 mg/mL and Goat anti-GST antibody (GE Healthcare) to a final concentration of 5 μg/mL. […] Test compounds were assayed over a concentration range. After incubation, the assay plates were read on a Packard TopCount.

Row | Compound | Ki (read-out: LXRβ pKi (converted)) [nM] | Ki [nM]
1 | O=C(Nc1ccc(OC2CCN(Cc3ccc(C(O)(C(F)(F)F)C(F)(F)F)cc3)CC2)cc1)NC1CCOCC1 [Example 1C, 1-(4-(1-(4-(1,1,1,3,3,3-Hexafluoro-2-hydroxypropan-2-yl)benzyl)piperidin-4-yloxy)phenyl)-3-(tetrahydro-2H-pyran-4-yl)urea] | 9.77 | 
2 | CC(C)(O)CNC(=O)Nc1ccc(OC2CCN(Cc3ccc(C(O)(C(F)(F)F)C(F)(F)F)cc3)CC2)cc1 [Example 1D, 1-(4-(1-(4-(1,1,1,3,3,3-Hexafluoro-2-hydroxypropan-2-yl)benzyl)piperidin-4-yloxy)phenyl)-3-(2-hydroxy-2-methylpropyl)urea] | 11.5 | 
3 | O=C(Nc1ccc(OC2CCN(Cc3ccc(C(O)(C(F)(F)F)C(F)(F)F)cc3)CC2)cc1)Nc1ccnnc1 [Example 1F, 1-(4-(1-(4-(1,1,1,3,3,3-Hexafluoro-2-hydroxypropan-2-yl)benzyl)piperidin-4-yloxy)phenyl)-3-(pyridazin-4-yl)urea] |  | 5.89
4 | O=C(Nc1ccncc1)Nc1ccc(OC2CCN(Cc3ccc(C(O)(C(F)(F)F)C(F)(F)F)cc3)CC2)cc1 [Example 2, 1-(4-(1-(4-(1,1,1,3,3,3-Hexafluoro-2-hydroxypropan-2-yl)benzyl)piperidin-4-yloxy)phenyl)-3-(pyridin-4-yl)urea] | 2.04 | 
5 | O=C(Nc1ccc(OC2CCN(Cc3ccc(C(O)(C(F)(F)F)C(F)(F)F)cc3)CC2)cc1)Nc1ccncc1F [Example 2C, 1-(3-Fluoropyridin-4-yl)-3-(4-(1-(4-(1,1,1,3,3,3-hexafluoro-2-hydroxypropan-2-yl)benzyl)piperidin-4-yloxy)phenyl)urea] | 2 | 
6 | O=C(Nc1ccc(OC2CCN(Cc3ccc(C(O)(C(F)(F)F)C(F)(F)F)cc3)CC2)cc1)Nc1ccncn1 [Example 2E, 1-(4-(1-(4-(1,1,1,3,3,3-Hexafluoro-2-hydroxypropan-2-yl)benzyl)piperidin-4-yloxy)phenyl)-3-(pyrimidin-4-yl)urea] | 3.02 | 
7 | O=C(Nc1ccc(CC2CCN(Cc3ccc(C(O)(C(F)(F)F)C(F)(F)F)cc3)CC2)cc1)NC1COC1 [Example 6P, 1-(4-((1-(4-(1,1,1,3,3,3-Hexafluoro-2-hydroxypropan-2-yl)benzyl)piperidin-4-yl)methyl)phenyl)-3-(oxetan-3-yl)urea] | 9.12 | 
8 | O=C(Nc1ccc(CC2CCN(Cc3ccc(C(O)(C(F)(F)F)C(F)(F)F)cc3)CC2)cc1)Nc1ccncc1F [Example 6S, 1-(3-Fluoropyridin-4-yl)-3-(4-((1-(4-(1,1,1,3,3,3-hexafluoro-2-hydroxypropan-2-yl)benzyl)piperidin-4-yl)methyl)phenyl)urea] | 7.41 | 
9 | O=C(Nc1ccncc1)Nc1ccc(CC2CCN(Cc3ccc(C(O)(C(F)(F)F)C(F)(F)F)cc3)CC2)cc1 [Example 7, 1-(4-((1-(4-(1,1,1,3,3,3-Hexafluoro-2-hydroxypropan-2-yl)benzyl)piperidin-4-yl)methyl)phenyl)-3-(pyridin-4-yl)urea] | 7.94 | 
10 | O=C(Nc1ccc(CC2CCN(Cc3ccc(C(O)(C(F)(F)F)C(F)(F)F)cc3)CC2)cc1)Nc1ccncn1 [Example 7B, 1-(4-((1-(4-(1,1,1,3,3,3-Hexafluoro-2-hydroxypropan-2-yl)benzyl)piperidin-4-yl)methyl)phenyl)-3-(pyrimidin-4-yl)urea] | 4.27 | 
11 | CC(O)(CNC(=O)Nc1ccc(CC2CCN(Cc3ccc(C(O)(C(F)(F)F)C(F)(F)F)cc3)CC2)cc1F)C(F)(F)F (centres unmarked) [Example 12AA, 1-(2-Fluoro-4-((1-(4-(1,1,1,3,3,3-hexafluoro-2-hydroxypropan-2-yl)benzyl)piperidin-4-yl)methyl)phenyl)-3-(3,3,3-trifluoro-2-hydroxy-2-methylpropyl)urea] | 5.75 | 
12 | CC(C)(O)CNC(=O)Nc1ccc(CC2CCN(Cc3ccc(C(O)(C(F)(F)F)C(F)(F)F)cc3)CC2)cc1F [Example 12AC, 1-(2-Fluoro-4-((1-(4-(1,1,1,3,3,3-hexafluoro-2-hydroxypropan-2-yl)benzyl)piperidin-4-yl)methyl)phenyl)-3-(2-hydroxy-2-methylpropyl)urea] | 17 | 
13 | O=C(Nc1ccc(CC2CCN(Cc3ccc(C(O)(C(F)(F)F)C(F)(F)F)cc3)CC2)cc1F)NC1COC1 [Example 12AE, 1-(2-Fluoro-4-((1-(4-(1,1,1,3,3,3-hexafluoro-2-hydroxypropan-2-yl)benzyl)piperidin-4-yl)methyl)phenyl)-3-(oxetan-3-yl)urea] | 21.9 | 
14 | O=C(Nc1ccc(CC2CCN(Cc3ccc(C(O)(C(F)(F)F)C(F)(F)F)cc3)CC2)cc1F)NC1CCOCC1 [Example 12AG, 1-(2-Fluoro-4-((1-(4-(1,1,1,3,3,3-hexafluoro-2-hydroxypropan-2-yl)benzyl)piperidin-4-yl)methyl)phenyl)-3-(tetrahydro-2H-pyran-4-yl)urea] | 21.9 | 
15 | O=C(Nc1cnoc1)Nc1ccc(CC2CCN(Cc3ccc(C(O)(C(F)(F)F)C(F)(F)F)cc3)CC2)cc1F [Example 12D, 1-(2-Fluoro-4-((1-(4-(1,1,1,3,3,3-hexafluoro-2-hydroxypropan-2-yl)benzyl)piperidin-4-yl)methyl)phenyl)-3-(isoxazol-4-yl)urea] | 4.9 | 
16 | Cc1cc(NC(=O)Nc2ccc(CC3CCN(Cc4ccc(C(O)(C(F)(F)F)C(F)(F)F)cc4)CC3)cc2F)no1 [Example 12E, 1-(2-Fluoro-4-((1-(4-(1,1,1,3,3,3-hexafluoro-2-hydroxypropan-2-yl)benzyl)piperidin-4-yl)methyl)phenyl)-3-(5-methylisoxazol-3-yl)urea] | 9.55 | 
17 | O=C(Nc1ccc(CC2CCN(Cc3ccc(C(O)(C(F)(F)F)C(F)(F)F)cc3)CC2)cc1F)N[C@H]1CCOC1 [Example 12F, (S)-1-(2-Fluoro-4-((1-(4-(1,1,1,3,3,3-hexafluoro-2-hydroxypropan-2-yl)benzyl)piperidin-4-yl)methyl)phenyl)-3-(tetrahydrofuran-3-yl)urea] | 17 | 
18 | O=C(NCC(O)C(F)(F)F)Nc1ccc(CC2CCN(Cc3ccc(C(O)(C(F)(F)F)C(F)(F)F)cc3)CC2)cc1F (centres unmarked) [Example 12I, 1-(2-Fluoro-4-((1-(4-(1,1,1,3,3,3-hexafluoro-2-hydroxypropan-2-yl)benzyl)piperidin-4-yl)methyl)phenyl)-3-(3,3,3-trifluoro-2-hydroxypropyl)urea] | 2.75 | 
19 | O=C(Nc1ccncc1)Nc1ccc(CC2CCN(Cc3ccc(C(O)(C(F)(F)F)C(F)(F)F)cc3)CC2)cc1F [Example 13, 1-(2-Fluoro-4-((1-(4-(1,1,1,3,3,3-hexafluoro-2-hydroxypropan-2-yl)benzyl)piperidin-4-yl)methyl)phenyl)-3-(pyridin-4-yl)urea] | 5.5 | 
20 | O=C(Nc1ccncn1)Nc1ccc(CC2CCN(Cc3ccc(C(O)(C(F)(F)F)C(F)(F)F)cc3)CC2)cc1F [Example 13B, 1-(2-Fluoro-4-((1-(4-(1,1,1,3,3,3-hexafluoro-2-hydroxypropan-2-yl)benzyl)piperidin-4-yl)methyl)phenyl)-3-(pyrimidin-4-yl)urea] | 9.77 | 
21 | CC(C)(O)CNC(=O)Nc1cc(F)c(CC2CCN(Cc3ccc(C(O)(C(F)(F)F)C(F)(F)F)cc3)CC2)cc1F [Example 16, 1-(2,5-Difluoro-4-((1-(4-(1,1,1,3,3,3-hexafluoro-2-hydroxypropan-2-yl)benzyl)piperidin-4-yl)methyl)phenyl)-3-(2-hydroxy-2-methylpropyl)urea] | 24.5 | 
22 | CC(O)(CNC(=O)Nc1cc(F)c(CC2CCN(Cc3ccc(C(O)(C(F)(F)F)C(F)(F)F)cc3)CC2)cc1F)C(F)(F)F (centres unmarked) [Example 16B, 1-(2,5-Difluoro-4-((1-(4-(1,1,1,3,3,3-hexafluoro-2-hydroxypropan-2-yl)benzyl)piperidin-4-yl)methyl)phenyl)-3-(3,3,3-trifluoro-2-hydroxy-2-methylpropyl)urea] | 7.94 | 
23 | CC(C)(O)CNC(=O)Nc1ccc(CC2CCN(Cc3ccc(C(O)(C(F)(F)F)C(F)(F)F)cc3)CC2)cc1Cl [Example 17, 1-(2-Chloro-4-((1-(4-(1,1,1,3,3,3-hexafluoro-2-hydroxypropan-2-yl)benzyl)piperidin-4-yl)methyl)phenyl)-3-(2-hydroxy-2-methylpropyl)urea] | 6.03 | 
